Target: T1, unphosphorylated VEGF-R2Δ50 (FLVK) (Homo sapiens, UniProt P35968, DEL940-989/E990V)
T1 construct: VEGF-R2Δ50 contains residues 806-939 and 990-1171; made in house; host or cells: baculovirus/insect cell system
Experiment: VEGF-R2 coupled spectrophotometric assay, unphosphorylated construct (FLVK)
Format: biochemical
Conditions: for inhibition at 0.05 µM: percent inhibition at 50 nM
From the text: This construct determines the ability of a test compound to inhibit tyrosine kinase activity. A construct (VEGF-R2Δ50) of the cytosolic domain of human vascular endothelial growth factor receptor 2 (VEGF-R2) lacking the 50 central residues of the 68 residues of the kinase insert domain was expressed in a baculovirus/insect cell system. Of the 1356 residues of full-length VEGF-R2, VEGF-R2Δ50 contains residues 806-939 and 990-1171, and also one point mutation (E990V) within the kinase insert domain relative to wild-type VEGF-R2. Autophosphorylation of the purified construct was performed by incubation of the enzyme at a concentration of 4 μM in the presence of 3 mM ATP and 40 mM MgCl2 in 100 mM HEPES, pH 7.5, containing 5% glycerol and 5 mM DTT, at 4° C. for 2 h. […] See Parast et al., Biochemistry, 37, 16788-16801 (1998).
The production of ADP from ATP that accompanies phosphoryl transfer was coupled to oxidation of NADH using phosphoenolpyruvate (PEP) and a system having pyruvate kinase (PK) and lactic dehydrogenase (LDH). The oxidation of NADH was monitored by following the decrease of absorbance at 340 nm ([…]=6.22 cm^−1 mM^−1) using a Beckman DU 650 spectrophotometer. Assay conditions for phosphorylated VEGF-R2Δ50 (indicated as FLVK-P in the tables below) were the following: 1 mM PEP; 250 μM NADH; 50 units of LDH/mL; 20 units of PK/mL; 5 mM DTT; […]; 1 mM ATP; and 25 mM MgCl2 in 200 mM HEPES, pH 7.5. Assay conditions for unphosphorylated VEGF-R2Δ50 (indicated as FLVK in the tables) were the following: 1 mM PEP; 250 μM NADH; 50 units of LDH/mL; 20 units of PK/mL; 5 mM DTT; […]; 3 mM ATP; and 60 mM MgCl2 and 2 mM MnCl2 in 200 mM HEPES, pH 7.5. Assays were initiated with 5 to 40 nM of enzyme. Ki values were determined by measuring enzyme activity in the presence of varying concentrations of test compounds. The percent inhibition at 50 nm (% inhibition@ 50 nm) was determined by linear least-squares regression analysis of absorbance as a function of time. The binding inhibitions were fitted to equation as described by Morrison. The data were analyzed using Enzyme Kinetic and Kaleidagraph software.

T1 sequence (P35968 with tags, fused parts or gaps DEL940-989/E990V limits assumed): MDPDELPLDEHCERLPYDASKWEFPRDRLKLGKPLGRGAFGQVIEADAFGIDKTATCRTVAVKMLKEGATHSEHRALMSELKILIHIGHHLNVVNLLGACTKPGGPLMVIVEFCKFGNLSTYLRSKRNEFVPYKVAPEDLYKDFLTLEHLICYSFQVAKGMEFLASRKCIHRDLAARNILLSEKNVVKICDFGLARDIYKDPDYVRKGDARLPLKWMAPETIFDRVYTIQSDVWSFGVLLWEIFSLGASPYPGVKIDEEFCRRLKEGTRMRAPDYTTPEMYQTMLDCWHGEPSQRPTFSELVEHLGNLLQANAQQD

How did the Ki turn out when `CNC(=O)n1c(C)cc2cc(Oc3ccnc4cc(C(=O)N5C[C@H](OC)[C@H](OC)C5)sc34)ccc21` [Example 4r, 5-[2-(3,4-cis-Dimethoxy-pyrrolidine-1-carbonyl)-thieno[3,2-b]pyridin-7-yloxy]-2-methyl-indole-1-carboxylic acid methylamide] was run?
Its Ki is 0.701 nM.

And the inhibition at 0.05 µM?
Its inhibition at 0.05 µM is 96%.

With `CNC(=O)n1c(C)cc2cc(Oc3ccnc4cc(C(=O)N5C[C@@H](O)[C@@H](O)C5)sc34)ccc21` [Example 4s, 5-[2-(3,4-cis-Dihydroxy-pyrrolidine-1-carbonyl)-thieno[3,2-b]pyridin-7-yloxy]-2-methyl-indole-1-carboxylic acid methylamide] as the molecule, how does the Ki read?
The Ki was 0.085 nM.

What about the inhibition at 0.05 µM of the same molecule?
Its inhibition at 0.05 µM is 98%.

For `CO[C@H]1CN(C(=O)c2cc3nccc(Oc4ccc5c(c4)cc(C)n5C(=O)NC4CC4)c3s2)C[C@H]1OC` [Example 4t, 5-[2-(3,4-cis-Dimethoxy-pyrrolidine-1-carbonyl)-thieno[3,2-b]pyridin-7-yloxy]-2-methyl-indole-1-carboxylic acid cyclopropylamide], which Ki is on record?
The Ki was 0.594 nM.

What about the inhibition at 0.05 µM of the same molecule?
Its inhibition at 0.05 µM is 98%.

Which Ki does the source give for `Cc1cc2cc(Oc3ccnc4cc(C(=O)N5C[C@@H](O)[C@@H](O)C5)sc34)ccc2n1C(=O)NC1CC1` [Example 4u, 5-[2-(3,4-cis-Dihydroxy-pyrrolidine-1-carbonyl)-thieno[3,2-b]pyridin-7-yloxy]-2-methyl-indole-1-carboxylic acid cyclopropylamide] here?
The Ki was 0.2 nM.

And the inhibition at 0.05 µM?
Its inhibition at 0.05 µM is 98%.

With `C#CCNC(=O)n1c(C)cc2cc(Oc3ccnc4cc(C(=O)N5C[C@H](OC)[C@H](OC)C5)sc34)ccc21` [Example 4v, 5-[2-(3,4-cis-Dimethoxy-pyrrolidine-1-carbonyl)-thieno[3,2-b]pyridin-7-yloxy]-2-methyl-indole-1-carboxylic acid prop-2-ynylamide] as the molecule, how does the Ki read?
Its Ki is 0.416 nM.

What about the inhibition at 0.05 µM of the same molecule?
The inhibition at 0.05 µM was 99%.

What does the source list for `C#CCNC(=O)n1c(C)cc2cc(Oc3ccnc4cc(C(=O)N5C[C@@H](O)[C@@H](O)C5)sc34)ccc21` [Example 4w, 5-[2-(3,4-cis-Dihydroxy-pyrrolidine-1-carbonyl)-thieno[3,2-b]pyridin-7-yloxy]-2-methyl-indole-1-carboxylic acid prop-2-ynylamide]?
Ki: 0.172 nM; inhibition at 0.05 µM: 99%

With `CNC(=O)c1c(C)[nH]c2ccc(Oc3ccnc4cc(C(=O)N5CCC[C@@H]5COC)sc34)cc12` [Example 4x, 5-[2-(2R-Methoxymethyl-pyrrolidine-1-carbonyl)-thieno[3,2-b]pyridin-7-yloxy]-2-methyl-1H-indole-3-carboxylic acid methylamide] as the molecule, how does the Ki read?
The Ki was 100 nM.

And the inhibition at 0.05 µM?
Its inhibition at 0.05 µM is 1%.

For `Cc1cc2c(F)c(Oc3ccnc4cc(C(=O)N5CC[C@H](O)C5)sc34)ccc2n1C(=O)NC1CC1` [Example 5j, 4-Fluoro-5-[2-(3S-hydroxy-pyrrolidine-1-carbonyl)-thieno[3,2-b]pyridin-7-yloxy]-2-methyl-indole-1-carboxylic acid cyclopropylamide], which Ki is on record?
Its Ki is 0.388 nM.

And the inhibition at 0.05 µM?
The inhibition at 0.05 µM was 100%.

How did the Ki turn out when `CNC(=O)n1c(C)cc2c(F)c(Oc3ccnc4cc(C(=O)N5CC[C@@H](OC)C5)sc34)ccc21` [Example 5l, 4-Fluoro-5-[2-(3R-methoxy-pyrrolidine-1-carbonyl)-thieno[3,2-b]pyridin-7-yloxy]-2-methyl-indole-1-carboxylic acid methylamide] was run?
The Ki was 0.189 nM.

What about the inhibition at 0.05 µM of the same molecule?
Its inhibition at 0.05 µM is 99%.

What does the source list for `CNC(=O)n1c(C)cc2c(F)c(Oc3ccnc4cc(C(=O)N5CC[C@@H](O)C5)sc34)ccc21` [Example 5m, 4-Fluoro-5-[2-(3R-hydroxy-pyrrolidine-1-carbonyl)-thieno[3,2-b]pyridin-7-yloxy]-2-methyl-indole-1-carboxylic acid methylamide]?
Ki: 0.586 nM; inhibition at 0.05 µM: 98%

For `CNC(=O)n1c(C)c(Cl)c2c(F)c(Oc3ccnc4cc(C(=O)N5CC[C@H](O)C5)sc34)ccc21` [Example 6e, 3-Chloro-4-fluoro-5-[2-(3S-hydroxy-pyrrolidine-1-carbonyl)-thieno[3,2-b]pyridin-7-yloxy]-2-methyl-indole-1-carboxylic acid methylamide], which Ki is on record?
The Ki was 0.279 nM.

What about the inhibition at 0.05 µM of the same molecule?
The inhibition at 0.05 µM was 99%.

`Cc1c(Cl)c2c(F)c(Oc3ccnc4cc(C(=O)N5CC[C@H](O)C5)sc34)ccc2n1C(=O)NC1CC1` [Example 6f, 3-Chloro-4-fluoro-5-[2-(3S-hydroxy-pyrrolidine-1-carbonyl)-thieno[3,2-b]pyridin-7-yloxy]-2-methyl-indole-1-carboxylic acid cyclopropyl-amide] was tested. Which Ki did it give?
The Ki was 0.154 nM.

And the inhibition at 0.05 µM?
Its inhibition at 0.05 µM is 98%.

For `CNC(=O)n1c(C)c(Cl)c2c(F)c(Oc3ccnc4cc(C(=O)N5CC[C@@H](OC)C5)sc34)ccc21` [Example 6g, 3-Chloro-4-fluoro-5-[2-(3R-methoxy-pyrrolidine-1-carbonyl)-thieno[3,2-b]pyridin-7-yloxy]-2-methyl-indole-1-carboxylic acid methylamide], which Ki is on record?
Its Ki is 1.23 nM.

What about the inhibition at 0.05 µM of the same molecule?
Its inhibition at 0.05 µM is 97%.

For `C#CCNC(=O)n1c(C)c(Cl)c2c(F)c(Oc3ccnc4cc(C(=O)N5CC[C@@H](OC)C5)sc34)ccc21` [Example 6h, 3-Chloro-4-fluoro-5-[2-((R)-3-methoxy-pyrrolidine-1-carbonyl)-thieno[3,2-b]pyridin-7-yloxy]-2-methyl-indole-1-carboxylic acid prop-2-ynylamide], which Ki is on record?
The Ki was 0.142 nM.

What about the inhibition at 0.05 µM of the same molecule?
Its inhibition at 0.05 µM is 98%.

For `CNC(=O)n1c(C)cc2cc(Nc3ccnc4cc(C(=O)N5CC(F)[C@H](OC)C5)sc34)ccc21` (stereo partly drawn) [Example 7a, 5-[(2-{[(4R)-3-Fluoro-4-methoxypyrrolidin-1-yl]carbonyl}thieno[3,2-b]pyridin-7-yl)amino]-N,2-dimethyl-1H-indole-1-carboxamide], which Ki is on record?
Its Ki is 0.796 nM.

And the inhibition at 0.05 µM?
The inhibition at 0.05 µM was 93%.

With `CNC(=O)n1c(C)cc2cc(Nc3ccnc4cc(C(=O)N5CCC5)sc34)ccc21` [Example 7c, 5-[2-(Azetidine-1-carbonyl)-thieno[3,2-b]pyridin-7-ylamino]-2-methyl-indole-1-carboxylic acid methylamide] as the molecule, how does the Ki read?
The Ki was 1.91 nM.

What about the inhibition at 0.05 µM of the same molecule?
The inhibition at 0.05 µM was 97%.

Which Ki does the source give for `CNC(=O)n1c(C)cc2cc(Oc3ccnc4cc(C(=O)N5C[C@H](OC)[C@@H](O)C5)sc34)ccc21` [Example 8c] here?
The Ki was 0.123 nM.

And the inhibition at 0.05 µM?
The inhibition at 0.05 µM was 98%.

Which results are given for `CNC(=O)n1c(C)cc2cc(Oc3ccnc4cc(C(=O)N5C[C@H](O)[C@@H](O)C5)sc34)ccc21` [Example 8d]?
Ki: 0.109 nM; inhibition at 0.05 µM: 99%

What does the source list for `CCCNC(=O)n1c(C)cc2cc(Oc3ccnc4cc(C(=O)N5C[C@H](OC)[C@@H](OC)C5)sc34)ccc21` [Example 8e, 5-[(2-{[(3S,4S)-3,4-dimethoxypyrrolidin-1-yl]carbonyl}thieno[3,2-b]pyridin-7-yl)oxy]-2-methyl-N-propyl-1H-indole-1-carboxamide]?
Ki: 0.115 nM; inhibition at 0.05 µM: 98%

What does the source list for `CCCNC(=O)n1c(C)cc2cc(Oc3ccnc4cc(C(=O)N5C[C@H](O)[C@@H](O)C5)sc34)ccc21` [Example 8f, 5-[(2-{[(3S,4S)-3,4-Dihydroxypyrrolidin-1-yl]carbonyl}thieno[3,2-b]pyridin-7-yl)oxy]-2-methyl-N-propyl-1H-indole-1-carboxamide]?
Ki: 0.35 nM; inhibition at 0.05 µM: 99%

Which Ki does the source give for `CNC(=O)n1c(C)cc2cc(Oc3ccnc4cc(C(=O)N5CC(F)[C@@H](OC)C5)sc34)ccc21` (stereo partly drawn) [Example 8j, 5-[(2-{[(4S)-3-Fluoro-4-methoxypyrrolidin-1-yl]carbonyl}thieno[3,2-b]pyridin-7-yl)oxy]-N,2-dimethyl-1H-indole-1-carboxamide] here?
Its Ki is 0.142 nM.

What about the inhibition at 0.05 µM of the same molecule?
Its inhibition at 0.05 µM is 99%.
